# Where a name gives a salt, the structure may show the parent alone. Read-outs that look alike come from different tables or passages of the source.
# Key:
# [1] = Scale-up and solid-state stability study; format: physicochemical; conditions: ~10 mg staged at 40° C./75% RH for 1 day, analyzed by PXRD
# Method: Scale up study of selected S-5-MAPB salts (Patterns 1A, 2A, and 10A) to −70 mg was completed. […] All three samples were then tested for their solid-state stability as shown below in Table 17. (API=5-MAPB HCl)
# Scale up study of selected salts (S-5-MAPB Patterns 1A, 4A, and 8A) to −250 mg completed. Patterns 1A, 4A, and 8A were all scaled up successfully. All three samples were then tested for their solid-state stability as shown below in Table 19. (API=S-5-MAPB Pure Enantiomer)
# [2] = target: human 5-HT transporter (hSERT) (Homo sapiens (Human), UniProt P31645); test: Human serotonin transporter  assay ([3H]imipramine radioligand, CHO cells); format: binding
# Method: EXAMPLE 8: Human Serotonin Transporter (SERT, SLC6A4) Functional Antagonist Uptake Assay
# Benzofuran derivatives were evaluated for inhibiting the human 5-HT transporter (hSERT) as expressed in CHO cells using an antagonist radioligand assay (Tatsumi, M. et al. (1999), Eur. J. Pharmacol., 368: 277-283). […] Test compounds were assayed in three trials at […], and 0.94868 μM.
# EXAMPLE 57: Human Serotonin Transporter (SERT, SLC6A4) Functional Antagonist Uptake Assay
# [3] = target: 5-HT1BR (Homo sapiens (Human), UniProt P28222); format: cell-based; conditions: for Hill Coef.: 5-HT1BR agonist curve; for EC50: Table 3
# [4] = target: T1, SERT (Rattus norvegicus (Rat), UniProt P31652); test: In vitro rat synaptosome serotonin uptake inhibition assay (Examples 9, 58); format: biochemical; conditions: rat synaptosomes
# From the text: (§1) FIG. 7A is a graph showing results from an in vitro rat synaptosome serotonin uptake inhibition assay. […] Details and procedural information for this assay are described in Example 9. The x-axis is the log [dose] concentration measured in molar and the y-axis is the [^3H]-labeled 5-HT reuptake measured in percent.
# as §1, with “176” for “7A”, “58.” for “9.”, “x-axis” for “x-axis is”, “concentration is” for “concentration”, “Molar units” for “molar”, “percent of maximum produced by the comparison releaser.” for “percent.”
# [5] = target: T1, SERT; test: In vitro rat synaptosome serotonin release (efflux) assay (Examples 9, 58); format: biochemical; conditions: rat synaptosomes
# From the text: as §1, with “7B” for “7A”, “release” for “uptake inhibition”, “release” for “reuptake”
# as §1, with “177” for “7A”, “release” for “uptake inhibition”, “58.” for “9.”, “x-axis” for “x-axis is”, “release” for “reuptake”
# [6] = target: serotonin (5-HT) transporter (SERT) (Rattus norvegicus (Rat), UniProt P31652); test: Rat synaptosome SERT uptake inhibition assay ([3H]5-HT)
# [7] = target: Human Trace Amine Associated Receptor (hTAAR1) (Homo sapiens (Human), UniProt Q96RJ0); test: hTAAR1 agonist assay (DiscoverX cAMP Hunter); format: cell-based; conditions: for hTAAR1 maximum detected effects: seven concentrations between 0.05692 and 60 μM
# [8] = target: dopamine transporter (DAT) (Rattus norvegicus (Rat), UniProt P23977); test: Rat synaptosome DAT release assay ([3H]MPP+); conditions: read-out: dopamine Emax (maximum dopamine increase relative to reference drug)
# [9] = Human self-reported effects of non-racemic 5-MAPB (Good, Bad, Open ratings); format: in vivo
# Method: The effects of non-racemic 5-MAPB HCl were tested by a healthy human individual at four different ratios of enantiomers plus the racemate as a control: • 54 mg S and 0 mg R (100% S) • 47 mg S and 7 mg R (about 87% S) • 36 mg S and 18 mg R (about 67% S) • 27 mg S and 27 mg R (about 50% S) • 7 mg S and 47 mg R (about 13% S)
# Two trials were carried out at each ratio, except for 13% S where only one was conducted. Trials were at least 72 h apart.
# 5-MAPB HCl was dissolved in 1.5 ml distilled water and consumed in two halves, separated by 1 hour. Starting at 3 hours after administration, tablets of 250 mg ascorbic acid and capsules of 300 mg alpha lipoic acid were taken ad libitum (approximately every hour for a total of 4 administrations).
# Measurements were made approximately every 2 hours until post 6 hours and the maximum ratings per session were analyzed. Additionally, an index of good drug effects versus emotional openness, calculated as (Open−Good)/(200, the theoretical maximum of Open+ Good), was constructed at each time point and the maximum analyzed. In healthy volunteers, Good Ratings can be considered a predictor of abuse liability. Accordingly, this index can be used as an indicator of the balance of a therapeutic effect (emotional openness) vs abuse liability.
# Historic data of two trials 50 mg RS-5-MAPB Cl from the same individual were also included in the analysis for comparison.
# Table 24 below indicates maximums for individual measures and for the open vs good index, averaged from all sessions (N=2, except for 13% S-5-MAPB where N=1). Qualitatively, all conditions produced subtle emotional effects, including decreases in negative affect and increases in stability of mood, without sensory distortion.
# [10] = S-5-MAPB salt scale-up (~70 mg, API=5-MAPB HCl)
# [11] = S-5-MAPB salt scale-up (~250 mg, API=S-5-MAPB Pure Enantiomer)
# [12] = Cheng Prusoff equation, read-out: SERT Ki
# [13] = read-out: Inhibition of [3H]5-HT Uptake at SERT IC50, rat brain synaptosomes, 5 nM [3H]5-HT
# [14] = one healthy human, 54 mg total 5-MAPB HCl oral in two halves 1 hour apart, session maximum averaged (N=2, 13% S N=1)
compound,measurement,setting,value
"CNC(C)Cc1ccc2occc2c1.Cl (stereo not shown) [HCl (Pattern 1A), 5-MAPB HCl]",PXRD Pattern (40° C./75% RH sample),[1]; [10],Pattern 1A
same,PXRD Pattern (40° C./75% RH sample),[1]; [11],1A
"CN[C@H](C)Cc1ccc2ccoc2c1 (stereo in doubt) [Pattern R-6-MAPB, 1-(benzofuran-6-yl)-N-methylpropan-2-amine]",Ki,[2]; [12],11 µM
same,Hill Coef.,[3],1.14
same,EC50,[3],1.48 µM
same,[3H]-labeled 5-HT reuptake (serotonin uptake inhibition),[4],rapidly increases extracellular serotonin by inhibiting reuptake
same,[3H]-labeled 5-HT release,[5],rapidly increases extracellular serotonin by stimulating release
same,IC50,[6]; [13],0.623 ± 0.0312 µM
"CNC(C)Cc1ccc2occc2c1.O=C(O)/C=C\C(=O)O (stereo not shown) [Maleic (Pattern 10A), 5-MAPB maleic acid]",PXRD Pattern (40° C./75% RH sample),[1]; [10],10A
"CCC(Cc1ccc2occc2c1)NC (stereo not shown) [RS-5-MBPB, 1-(benzofuran-5-yl)-N-methylbutan-2-amine]",[3H]-labeled 5-HT reuptake (serotonin uptake inhibition),[4],rapidly increases extracellular serotonin by inhibiting reuptake
same,[3H]-labeled 5-HT release,[5],rapidly increases extracellular serotonin by stimulating release
"CNC(C)C(=O)c1ccc2occc2c1 (single isomer, unassigned; (-)) [(−)-Bk-5-MAPB, 1-(benzofuran-5-yl)-2-(methylamino) propan-1-one]",Hill Coef.,[3],1.5
same,[3H]-labeled 5-HT reuptake (serotonin uptake inhibition),[4],rapidly increases extracellular serotonin by inhibiting reuptake
same,[3H]-labeled 5-HT release,[5],rapidly increases extracellular serotonin by stimulating release
"CNC(C)C(=O)c1ccc2occc2c1 (single isomer, unassigned; (+)) [(+)-Bk-5-MAPB, 1-(benzofuran-5-yl)-2-(methylamino) propan-1-one]",Hill Coef.,[3],1.05
same,[3H]-labeled 5-HT reuptake (serotonin uptake inhibition),[4],rapidly increases extracellular serotonin by inhibiting reuptake
same,[3H]-labeled 5-HT release,[5],rapidly increases extracellular serotonin by stimulating release
"CN[C@@H](C)Cc1ccc2ccoc2c1 [Pattern S-6-MAPB, S-6-MAPB]",Ki,[2]; [12],3.1 µM
same,Hill Coef.,[3],1.21
same,EC50,[3],0.102 µM
same,[3H]-labeled 5-HT reuptake (serotonin uptake inhibition),[4],rapidly increases extracellular serotonin by inhibiting reuptake
same,[3H]-labeled 5-HT release,[5],rapidly increases extracellular serotonin by stimulating release
same,IC50,[6]; [13],0.0909 ± 0.0059 µM
"CC[C@@H](Cc1ccc2ccoc2c1)NC [Pattern S-6-MBPB, S-6-MBPB]",hTAAR1 maximum detected effects,[7],0.6%
same,Emax,[8],72%
same,IC50,[6],0.217 ± 0.0458 µM
"CN[C@@H](C)Cc1ccc2occc2c1.O=P(O)(O)O (single isomer, unassigned) [H3PO4 (Pattern 4A), 5-MAPB Enantiomer H3PO4]",PXRD Pattern (40° C./75% RH sample),[1]; [11],4A
"CCC(NC)C(=O)c1ccc2occc2c1 (single isomer, unassigned; (-)) [(−)-BK-5-MBPB, 1-(benzofuran-5-yl)-2-(methylamino) butan-1-one]",Hill Coef.,[3],1.6241
CN[C@@H](C)Cc1ccc2occc2c1 [100% S-5-MAPB],duration of effects,"[9]; healthy human individual, 54 mg S and 0 mg R",effects of less duration than conditions that included the R-enantiomer
same,"Bad (bad drug effects), maximum 0-100 rating",[9]; [14],1%
same,"Good (good drug effects), maximum 0-100 rating",[9]; [14],55%
same,"Open (emotional openness), maximum 0-100 rating",[9]; [14],65%
"CN[C@@H](C)Cc1ccc2occc2c1.O=C(O)C(=O)O (single isomer, unassigned) [Oxalic (Pattern 8A), 5-MAPB Enantiomer oxalic acid]",PXRD Pattern (40° C./75% RH sample),[1]; [11],8A
"CNC(C)C(=O)c1ccc2ccoc2c1 (racemic) [rac-BK-6-MAPB, 1-(benzofuran-6-yl)-2-(methylamino)propan-1-one hydrochloride]",Hill Coef.,[3],0.99
"CN[C@H](C)Cc1ccc2occc2c1 [Pattern R-5-MAPB, R-5-MAPB]",Ki,[2]; [12],1.2 µM
same,Hill Coef.,[3],1.13
same,EC50,[3],0.981 µM
same,[3H]-labeled 5-HT reuptake (serotonin uptake inhibition),[4],rapidly increases extracellular serotonin by inhibiting reuptake
same,[3H]-labeled 5-HT release,[5],rapidly increases extracellular serotonin by stimulating release
same,IC50,[6]; [13],0.15 ± 0.0086 µM
"CN[C@@H](C)Cc1ccc2occc2c1 [Pattern S-5-MAPB, S-5-MAPB]",Ki,[2]; [12],1.5 µM
same,Hill Coef.,[3],1.08
same,EC50,[3],0.161 µM
same,[3H]-labeled 5-HT reuptake (serotonin uptake inhibition),[4],rapidly increases extracellular serotonin by inhibiting reuptake
same,[3H]-labeled 5-HT release,[5],rapidly increases extracellular serotonin by stimulating release
same,IC50,[6]; [13],0.0604 ± 0.0028 µM
"CNC(C)C(=O)c1ccc2ccoc2c1 (single isomer, unassigned; (+)) [(+)-Bk-6-MAPB, 1-(benzofuran-6-yl)-2-(methylamino) propan-1-one]",IC50,[2],110 µM
same,Ki,[2],51 µM
same,[3H]-labeled 5-HT reuptake (serotonin uptake inhibition),[4],rapidly increases extracellular serotonin by inhibiting reuptake
same,[3H]-labeled 5-HT release,[5],rapidly increases extracellular serotonin by stimulating release
"NCCc1ccc(O)cc1 [p-Tyramine, reference compound]",EC50,[7]; positive control,1.14 µM
same,hTAAR1 Hill constant,[7]; positive control,0.7453
"CCC(NC)C(=O)c1ccc2occc2c1 (racemic) [rac-BK-5-MBPB, 1-(benzofuran-5-yl)-2-(methylamino) butan-1-one]",Hill Coef.,[3],1.01
"CC[C@H](Cc1ccc2ccoc2c1)NC [Pattern R-6-MBPB, R-6-MBPB]",hTAAR1 maximum detected effects,[7],0.9%
same,Emax,[8],~25%
same,IC50,[6],0.702 ± 0.262 µM
"Br.CNC(C)Cc1ccc2occc2c1 (stereo not shown) [HBr (Pattern 2A), 5-MAPB HBr]",PXRD Pattern (40° C./75% RH sample),[1]; [10],Pattern 2B
"CNC(C)C(=O)c1ccc2occc2c1 (racemic) [rac-BK-5-MAPB, 1-(benzofuran-5-yl)-2-(methylamino)propan-1-one hydrochloride]",Hill Coef.,[3],0.91
"CNC(C)C(=O)c1ccc2ccoc2c1 (single isomer, unassigned; (-)) [(−)-Bk-6-MAPB, 1-(benzofuran-6-yl)-2-(methylamino) propan-1-one]",Hill Coef.,[3],0.8339
same,[3H]-labeled 5-HT reuptake (serotonin uptake inhibition),[4],rapidly increases extracellular serotonin by inhibiting reuptake
same,[3H]-labeled 5-HT release,[5],rapidly increases extracellular serotonin by stimulating release

# Reference: US20250019357A1, “[…] MORPHIC FORMS AND MIXTURES FOR THE TREATMENT OF MENTAL DISORDERS OR MENTAL ENHANCEMENT” (TACTOGEN INC, priority 2021, published 2025)
